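Five compound concentrations were applied to cells in 96-well plates for 48 hours; endpoints were derived by simple linear interpolation of the resulting dose-response curve. GI50 = concentration required for 50% inhibition of growth.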 Active and inactive are the calls of the source. Rule as the data show it: active = GI50 up to about 1.1 µM and inactive = higher.
Key:
Assay in all cases: inhibition of tumour cell growth, NCI panel, 48 h
HCT-116 = tested on: HCT-116
SR = tested on: SR
MDA-N = tested on: MDA-N
RXF 393 = tested on: RXF 393
TK-10 = tested on: TK-10
MDA-MB-231 = tested on: MDA-MB-231
COLO 205 = tested on: COLO 205
NCI-H522 = tested on: NCI-H522
RPMI-8226 = tested on: RPMI-8226
HL-60 = tested on: HL-60
SF-539 = tested on: SF-539
SF-268 = tested on: SF-268
OVCAR-5 = tested on: OVCAR-5
MDA-MB-435 = tested on: MDA-MB-435
SNB-75 = tested on: SNB-75
NCI-H226 = tested on: NCI-H226
SK-OV-3 = tested on: SK-OV-3
OVCAR-4 = tested on: OVCAR-4
786-0 = tested on: 786-0
UO-31 = tested on: UO-31
DU-145 = tested on: DU-145
T47D = tested on: T47D
SF-295 = tested on: SF-295
EKVX = tested on: EKVX
IGROV-1 = tested on: IGROV-1
SK-MEL-2 = tested on: SK-MEL-2
SW-620 = tested on: SW-620
SN12C = tested on: SN12C
A549 = tested on: A549
HCT-15 = tested on: HCT-15
PC-3 = tested on: PC-3
Hs-578T = tested on: Hs-578T
OVCAR-8 = tested on: OVCAR-8
KM12 = tested on: KM12
NCI/ADR-RES = tested on: NCI/ADR-RES
BT-549 = tested on: BT-549
HT-29 = tested on: HT-29
UACC-257 = tested on: UACC-257
U-251 = tested on: U-251
A498 = tested on: A498
NCI-H460 = tested on: NCI-H460
UACC-62 = tested on: UACC-62
SK-MEL-5 = tested on: SK-MEL-5
MOLT-4 = tested on: MOLT-4
K562 = tested on: K562
ACHN = tested on: ACHN
M14 = tested on: M14
OVCAR-3 = tested on: OVCAR-3
CAKI-1 = tested on: CAKI-1
SNB-19 = tested on: SNB-19
LOX IMVI = tested on: LOX IMVI
Malme-3M = tested on: Malme-3M
SK-MEL-28 = tested on: SK-MEL-28
CCRF-CEM = tested on: CCRF-CEM
HOP-92 = tested on: HOP-92
NCI-H23 = tested on: NCI-H23
MCF7 = tested on: MCF7
HOP-62 = tested on: HOP-62
HCC 2998 = tested on: HCC 2998

O=C(O)c1ccc(OCc2ccccc2)c(Cl)c1
GI50 (HCT-116): > 100 µM (inactive)
GI50 (SR): > 100 µM (inactive)
GI50 (MDA-N): > 100 µM (inactive)
GI50 (RXF 393): > 100 µM (inactive)
GI50 (TK-10): > 100 µM (inactive)
GI50 (MDA-MB-231): > 100 µM (inactive)
GI50 (COLO 205): > 100 µM (inactive)
GI50 (NCI-H522): > 100 µM (inactive)
GI50 (RPMI-8226): > 100 µM (inactive)
GI50 (HL-60): > 100 µM (inactive)
GI50 (SF-539): > 100 µM (inactive)
GI50 (SF-268): > 100 µM (inactive)
GI50 (OVCAR-5): > 100 µM (inactive)
GI50 (MDA-MB-435): 80.5 µM (inactive)
GI50 (SNB-75): > 100 µM (inactive)
GI50 (NCI-H226): > 100 µM (inactive)
GI50 (SK-OV-3): > 100 µM (inactive)
GI50 (OVCAR-4): 14 µM (inactive)
GI50 (786-0): > 100 µM (inactive)
GI50 (UO-31): > 100 µM (inactive)
GI50 (DU-145): > 100 µM (inactive)
GI50 (T47D): > 100 µM (inactive)
GI50 (SF-295): > 100 µM (inactive)
GI50 (EKVX): > 100 µM (inactive)
GI50 (IGROV-1): > 100 µM (inactive)
GI50 (SK-MEL-2): > 100 µM (inactive)
GI50 (SW-620): > 100 µM (inactive)
GI50 (SN12C): > 100 µM (inactive)
GI50 (A549): > 100 µM (inactive)
GI50 (HCT-15): > 100 µM
GI50 (PC-3): > 100 µM (inactive)
GI50 (Hs-578T): > 100 µM (inactive)
GI50 (OVCAR-8): > 100 µM (inactive)
GI50 (KM12): 30.3 µM (inactive)
GI50 (NCI/ADR-RES): > 100 µM (inactive)
GI50 (BT-549): > 100 µM (inactive)
GI50 (HT-29): > 100 µM (inactive)
GI50 (UACC-257): > 100 µM (inactive)
GI50 (U-251): > 100 µM (inactive)
GI50 (A498): > 100 µM (inactive)
GI50 (NCI-H460): > 100 µM (inactive)
GI50 (UACC-62): > 100 µM (inactive)
GI50 (SK-MEL-5): > 100 µM (inactive)
GI50 (MOLT-4): > 100 µM (inactive)
GI50 (K562): > 100 µM (inactive)
GI50 (ACHN): > 100 µM (inactive)
GI50 (M14): > 100 µM (inactive)
GI50 (OVCAR-3): > 100 µM (inactive)
GI50 (CAKI-1): 20.2 µM (inactive)
GI50 (SNB-19): > 100 µM (inactive)
GI50 (LOX IMVI): > 100 µM (inactive)
GI50 (Malme-3M): > 100 µM (inactive)
GI50 (SK-MEL-28): > 100 µM (inactive)
GI50 (CCRF-CEM): > 100 µM (inactive)
GI50 (HOP-92): > 100 µM (inactive)
GI50 (NCI-H23): > 100 µM (inactive)
GI50 (MCF7): > 100 µM (inactive)
GI50 (HOP-62): > 100 µM (inactive)

COc1ccc(-c2[nH]c3c4c(nc5c(c24)C(=O)CC(C)(C)C5)CC(C)(C)C3)cc1
GI50 (HCT-116): 70 µM (inactive)
GI50 (SR): 13.2 µM (inactive)
GI50 (MDA-N): 47.4 µM (inactive)
GI50 (RXF 393): 73.5 µM (inactive)
GI50 (TK-10): > 100 µM (inactive)
GI50 (MDA-MB-231): 50.9 µM (inactive)
GI50 (COLO 205): 63.8 µM (inactive)
GI50 (NCI-H522): 54.5 µM (inactive)
GI50 (HL-60): 55.1 µM (inactive)
GI50 (SF-539): 67.6 µM (inactive)
GI50 (SF-268): 95.5 µM (inactive)
GI50 (OVCAR-5): > 100 µM (inactive)
GI50 (MDA-MB-435): 50.2 µM (inactive)
GI50 (SNB-75): 34.4 µM (inactive)
GI50 (NCI-H226): 68.7 µM (inactive)
GI50 (SK-OV-3): > 100 µM (inactive)
GI50 (OVCAR-4): 68.5 µM (inactive)
GI50 (786-0): 32.2 µM (inactive)
GI50 (UO-31): 61.1 µM (inactive)
GI50 (DU-145): > 100 µM (inactive)
GI50 (T47D): 44.5 µM (inactive)
GI50 (SF-295): 57.4 µM (inactive)
GI50 (EKVX): 47.3 µM (inactive)
GI50 (SK-MEL-2): 39.7 µM (inactive)
GI50 (SW-620): > 100 µM (inactive)
GI50 (SN12C): 38.9 µM (inactive)
GI50 (A549): 62.4 µM (inactive)
GI50 (HCT-15): 54.2 µM
GI50 (PC-3): 24.3 µM (inactive)
GI50 (Hs-578T): 93.1 µM (inactive)
GI50 (OVCAR-8): 52.6 µM (inactive)
GI50 (KM12): 40.4 µM (inactive)
GI50 (NCI/ADR-RES): 48.8 µM (inactive)
GI50 (BT-549): 43.9 µM (inactive)
GI50 (HT-29): 43.9 µM (inactive)
GI50 (UACC-257): 68.5 µM (inactive)
GI50 (U-251): 48.9 µM (inactive)
GI50 (A498): 28.6 µM (inactive)
GI50 (NCI-H460): 72.3 µM (inactive)
GI50 (UACC-62): > 100 µM (inactive)
GI50 (HCC 2998): 55.6 µM (inactive)
GI50 (SK-MEL-5): 63.1 µM (inactive)
GI50 (MOLT-4): 7.03 µM (inactive)
GI50 (K562): 28.4 µM (inactive)
GI50 (ACHN): 95.5 µM (inactive)
GI50 (M14): > 100 µM (inactive)
GI50 (OVCAR-3): 47.3 µM (inactive)
GI50 (CAKI-1): 70.5 µM (inactive)
GI50 (SNB-19): > 100 µM (inactive)
GI50 (LOX IMVI): 68.7 µM (inactive)
GI50 (Malme-3M): > 100 µM (inactive)
GI50 (SK-MEL-28): > 100 µM (inactive)
GI50 (CCRF-CEM): 11.4 µM (inactive)
GI50 (HOP-92): 39.6 µM (inactive)
GI50 (NCI-H23): 76.2 µM (inactive)
GI50 (MCF7): 58.3 µM (inactive)
GI50 (HOP-62): > 100 µM (inactive)

Reference: ChEMBL document CHEMBL1201862, “PubChem BioAssay data set” (2004)
